Results on eight molecules are retold here after patent publication EP4640678A1, “NOVEL OXO-PYRIDINE COMPOUND, PREPARATION METHOD THEREFOR, AND USE THEREOF” (Chengdu Shibeikang Biomedical Technology Co., Ltd., priority 2022, dated 2024).

One series deals with human FXla (Homo sapiens, UniProt P03951). Kind of series: Activity assay of coagulation factor FXla inhibitor (S-2366 substrate, OD405nm). It is filed as biochemical. Conditions: 5 concentrations 200 nM to 0.32 nM, 0.8 nM (2X) human FXla working solution. The text has this:
X: log value of compound concentration; Y: inhibition rate (%).

In a further series the test system is human plasma. Kind of series: determination of in-vitro anticoagulant effect in human plasma (APTT). In kind it is biochemical. Conditions: for APTT prolongation rate (%): healthy human plasma, 37°C for 3 min; for EC150: estimated from the APTT test results in human plasma. As to the method:
After centrifugation, the plasma sample was pipetted and frozen (-80°C) for later use.
A proper amount of a compound was weighed and prepared into a 10-100 mM stock solution using 100% of DMSO (the specific concentration of the stock solution was determined based on the properties of the compound); and then working solutions with various concentrations (specifically: 1 µM, 3 µM and 10 µM, respectively) were prepared from the stock solution using the healthy human plasma as a solution and thoroughly mixed. After incubation at 37°C for 3 min, the sample was placed on an instrument (model: CS-2000I) to determine APTT.
GraphPad Prism software was used for analysis to calculate the APTT prolongation rate at each concentration.

The nature of series [1]: Study of pharmacokinetics in rats. It is filed as in vivo. To be noted: rat, po; male SD rats, intragastrical gavage, 30 mg/kg, plasma. As to the method:
Each group was administered via intragastrical gavage at a dose of 30 mg/kg.
About 0.5 mL of blood was collected, placed in an EDTA-K2 tube, centrifuged to separate plasma, and stored at -80°C. The drug plasma concentration was measured using a liquid chromatography-tandem mass spectrometry analysis system (LC-MS/MS), and pharmacokinetic parameters, such as AUC0-t, Cmax, Tmax and t1/2, were calculated based on the drug plasma concentration data using DAS 2.0 software.

A short description of series [2]: Effect of continuous in-vivo administration on general condition and food intake of rats. Conditions: 500 mg/kg PO once a day for 14 days, within 24 hours after the last administration; for food intake compared with the blank group: SD rats. An excerpt:
Each group had 10 rats, equally distributed by gender. The rats received drug administrations via oral gavage once a day for 14 consecutive days, following the administration regimen outlined in the table below. The blank group was given an equal volume of a vehicle. […] Table 4 Continuous administration regimen

The structures appear in SMILES notation.

Chain of human FXla (P03951 388-625 limits assumed): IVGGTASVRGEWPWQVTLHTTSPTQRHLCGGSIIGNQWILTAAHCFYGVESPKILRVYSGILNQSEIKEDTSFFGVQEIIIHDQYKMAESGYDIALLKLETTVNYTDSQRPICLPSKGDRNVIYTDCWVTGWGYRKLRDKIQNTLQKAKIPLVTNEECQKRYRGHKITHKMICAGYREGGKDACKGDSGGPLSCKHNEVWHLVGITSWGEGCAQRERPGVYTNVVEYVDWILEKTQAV
Chain of human FXla (P03951 19-387 partner limits assumed): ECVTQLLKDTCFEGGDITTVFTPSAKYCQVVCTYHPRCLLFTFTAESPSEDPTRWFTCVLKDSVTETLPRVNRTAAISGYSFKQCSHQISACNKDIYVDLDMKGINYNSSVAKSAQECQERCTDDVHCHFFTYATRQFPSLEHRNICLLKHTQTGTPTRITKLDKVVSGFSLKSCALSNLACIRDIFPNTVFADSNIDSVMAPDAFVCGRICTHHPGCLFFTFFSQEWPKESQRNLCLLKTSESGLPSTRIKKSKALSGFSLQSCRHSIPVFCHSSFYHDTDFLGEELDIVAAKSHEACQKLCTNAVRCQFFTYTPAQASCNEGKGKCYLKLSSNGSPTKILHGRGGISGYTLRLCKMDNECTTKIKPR

Molecule `[2H]C([2H])([2H])NC(=O)c1ccc(NC(=O)[C@H](CC)n2cc(OC)c(-c3cc(Cl)ccc3-n3cc(C(F)(F)F)nn3)cc2=O)cc1F` [Compound 26, (S)-4-(2-(4-(5-chloro-2-(4-(trifluoromethyl)-1H-1,2,3-triazol-1-yl)phenyl)-5-(methoxy)-2-oxopyridin-1(2H)-yl)butanamido)-2-fluoro-N-(methyl-d3)benzamide] displayed an IC50 against human FXla of 1.15 nM. Moreover, the “APTT prolongation rate (%)” value in the series on human plasma (3 µM) is recorded as 78.3%. The “APTT prolongation rate (%)” value in the series with human plasma (10 µM) worked out at 159.5%. Moreover, the EC150 entry in the series on human plasma is on record as “less than 1 µM”. In series [1], the AUC(0-t) was determined as 129 µg·h/mL, the Cmax was 21000 ng/mL, the time of peak concentration (Tmax) was 2.7 h and the half-life was 3.33 h. Also, in series [2], the “Food intake (g, mean±SD)” value was found to be 26.49 ± 1.21 g and the “food intake compared with the blank group” value is given as “essentially the same food intake as the blank group”.

In turn, `CC[C@@H](C(=O)Nc1ccc(C(=O)O)c(OC)c1)n1cc(OC)c(-c2cc(Cl)ccc2-n2cc(C(F)(F)F)nn2)cc1=O` [Compound 6, (S)-4-(2-(4-(5-chloro-2-(4-(trifluoromethyl)-1H-1,2,3-triazol-1-yl)phenyl)-5-methoxy-2-oxopyridin-1(2H)-yl)butanamido)-2-methoxybenzoic acid] had an IC50 against human FXla of 0.96 nM. In addition, the “APTT prolongation rate (%)” value with human plasma (3 µM) was 78.0%. In the series with human plasma (10 µM), the “APTT prolongation rate (%)” value is listed as 135.1%. Further, in the series with human plasma, the EC150 result is recorded as “less than 1 µM”. In series [1], the area under the curve AUC(0-t) was 89.8 µg·h/mL, the concentration peaked (Cmax) at 6440 ng/mL, the Tmax was found to be 4.1 h and the half-life was 7.08 h.

At human FXla, `[2H]C([2H])([2H])Oc1cn([C@@H](CC)C(=O)Nc2ccc(C(=O)NC)c(F)c2)c(=O)cc1-c1cc(Cl)ccc1-n1cc(C(F)(F)F)nn1` [Compound 25, (S)-4-(2-(4-(5-chloro-2-(4-(trifluoromethyl)-1H-1,2,3-triazol-1-yl)phenyl)-5-(methoxy-d3)-2-oxopyridin-1(2H)-yl)butanamido)-2-fluoro-N-methylbenzamide] came in with an IC50 of 1.87 nM. The “APTT prolongation rate (%)” value with human plasma (3 µM) was found to be 76.7%. Further, the “APTT prolongation rate (%)” value in the series with human plasma (10 µM) came to 158.5%. In the series on human plasma, the EC150 entry was “less than 1 µM”. Further, in series [1], the AUC(0-t) amounted to 159 µg·h/mL, the highest concentration (Cmax) came out at 26500 ng/mL, the Tmax came out at 2.3 h and the half-life was 1.9 h. In addition, in series [2], the “Food intake (g, mean±SD)” value turned out to be 27.00 ± 1.42 g and the “food intake compared with the blank group” value is recorded as “essentially the same food intake as the blank group”.

For `[2H]C([2H])([2H])NC(=O)c1ccc(NC(=O)[C@H](CC)n2cc(OC([2H])([2H])[2H])c(-c3cc(Cl)ccc3-n3cc(C(F)(F)F)nn3)cc2=O)cc1F` [Compound 27, (S)-4-(2-(4-(5-chloro-2-(4-(trifluoromethyl)-1H-1,2,3-triazol-1-yl)phenyl)-5-(methoxy-d3)-2-oxopyridin-1(2H)-yl)butanamido)-2-fluoro-N-(methyl-d3)benzamide], on human FXla, 2.98 nM corresponded to half-maximal inhibition (IC50). Moreover, in the series with human plasma (3 µM), the “APTT prolongation rate (%)” value is 79.7%. Further, the “APTT prolongation rate (%)” value in the series on human plasma (10 µM) is 142.5%. In addition, the EC150 result in the series with human plasma is “less than 1 µM”. In addition, in series [1], the area under the curve AUC(0-t) was determined as 291 µg·h/mL, the Cmax stood at 27200 ng/mL, the time to peak (Tmax) was 4.43 h and the half-life is 4.01 h. Further, in series [2], the “Food intake (g, mean±SD)” value amounted to 27.08 ± 1.19 g and the “food intake compared with the blank group” value is “essentially the same food intake as the blank group”.

As to `CC[C@@H](C(=O)Nc1ccc(C(N)=O)c(OC)c1)n1cc(OC)c(-c2cc(Cl)ccc2-n2cc(C(F)(F)F)nn2)cc1=O` [Compound 5, (S)-4-(2-(4-(5-chloro-2-(4-(trifluoromethyl)-1H-1,2,3-triazol-1-yl)phenyl)-5-methoxy-2-oxopyridin-1(2H)-yl)butanamido)-2-methoxybenzamide], inhibition against human FXla was half-maximal at 5.6 nM (IC50). Further, the “APTT prolongation rate (%)” value in the series with human plasma (3 µM) was determined as 84.6%; in the series on human plasma (10 µM) it was 125.8%. In addition, the EC150 result in the series on human plasma was “less than 1 µM”.

As to `CC[C@@H](C(=O)Nc1ccc(C(=O)O)c(Cl)c1)n1cc(OC)c(-c2cc(Cl)ccc2-n2cc(Cl)nn2)cc1=O` [Compound 9, (S)-2-chloro-4-(2-(4-(5-chloro-2-(4-chloro-1H-1,2,3-triazol-1-yl)phenyl)-5-methoxy-2-oxopyridin-1(2H)-yl)butanamido)benzoic acid], the IC50 against human FXla came to 6.32 nM. Besides, the “APTT prolongation rate (%)” value in the series on human plasma (1 µM) was 44.3%; in the series on human plasma (3 µM) it was 69.5%; with human plasma (10 µM), 103.8%.

`[2H]C([2H])([2H])Oc1cn([C@@H](CC)C(=O)Nc2ccc(C(N)=O)c(Cl)c2)c(=O)cc1-c1cc(Cl)ccc1-n1cc(C(F)(F)F)nn1` [Compound 22, (S)-2-chloro-4-(2-(4-(5-chloro-2-(4-(trifluoromethyl)-1H-1,2,3-triazol-1-yl)phenyl)-5-(methoxy-d3)-2-oxopyridin-1(2H)-yl)butanamido)benzamide] returned an IC50 against human FXla of 4.23 nM. For the same molecule, the “APTT prolongation rate (%)” value in the series with human plasma (1 µM) amounted to 35.6%; with human plasma (3 µM), 62.0%; with human plasma (10 µM), 105.9%.

The molecule `CC[C@@H](C(=O)Nc1ccc(C(=O)O)c(Cl)c1)n1cc(OC)c(-c2cc(Cl)ccc2-n2cc(C(F)(F)F)nn2)cc1=O` [Compound 2, (S)-2-chloro-4-(2-(4-(5-chloro-2-(4-(trifluoromethyl)-1H-1,2,3-triazol-1-yl)phenyl)-5-methoxy-2-oxopyridin-1(2H)-yl)butanamido)benzoic acid] showed an IC50 on human FXla of 0.91 nM. For the same molecule, the “APTT prolongation rate (%)” value in the series with human plasma (3 µM) stood at 88.9%. The “APTT prolongation rate (%)” value in the series with human plasma (10 µM) was found to be 124.8%. Also, the EC150 result with human plasma is reported as “less than 1 µM”. Also, in series [1], the AUC(0-t) turned out to be 85.9 µg·h/mL, the maximum concentration (Cmax) was found to be 6740 ng/mL, the time to peak (Tmax) stood at 3.94 h and the half-life is 7.75 h. Also, in series [2], the “Food intake (g, mean±SD)” value turned out to be 27.22 ± 1.33 g and the “food intake compared with the blank group” value is “essentially the same food intake as the blank group”.
